Measured values reported in ChEMBL document CHEMBL1201862, “PubChem BioAssay data set” (2004).
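Five compound concentrations were applied to cells in 96-well plates for 48 hours; endpoints were derived by simple linear interpolation of the resulting dose-response curve. GI50 marks 50% less growth.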 The source made the active and inactive calls. Rule as the data show it: active = GI50 up to about 1.1 µM and inactive = higher.

Experiments:
Experiment in all cases: NCI anticancer screen, dose series, 48 h
[1] = test system: M19-MEL
[2] = test system: RPMI-8226
[3] = test system: DLD-1
[4] = test system: HT-29
[5] = test system: HOP-62
[6] = test system: ACHN
[7] = test system: M14
[8] = test system: LXFL 529
[9] = test system: SNB-19
[10] = test system: U-251
[11] = test system: SK-MEL-2
[12] = test system: 786-0
[13] = test system: SK-MEL-28
[14] = test system: COLO 205
[15] = test system: UO-31
[16] = test system: SNB-78
[17] = test system: KM-20L2
[18] = test system: DMS-114
[19] = test system: A498
[20] = test system: SN12C
[21] = test system: KM12
[22] = test system: SR
[23] = test system: UACC-62
[24] = test system: K562
[25] = test system: OVCAR-4
[26] = test system: NCI-H23
[27] = test system: TK-10
[28] = test system: OVCAR-8
[29] = test system: CAKI-1
[30] = test system: OVCAR-5
[31] = test system: SK-OV-3
[32] = test system: SNB-75
[33] = test system: Malme-3M
[34] = test system: NCI-H522
[35] = test system: A549
[36] = test system: XF498
[37] = test system: MOLT-4
[38] = test system: SK-MEL-5
[39] = test system: SF-268
[40] = test system: OVCAR-3
[41] = test system: SF-295
[42] = test system: SW-620
[43] = test system: CCRF-CEM
[44] = test system: NCI-H460
[45] = test system: HCT-116
[46] = test system: HOP-92
[47] = test system: UACC-257
[48] = test system: HL-60
[49] = test system: NCI-H226
[50] = test system: EKVX
[51] = test system: IGROV-1
[52] = test system: HCC 2998
[53] = test system: DMS-273
[54] = test system: SF-539
[55] = test system: LOX IMVI
[56] = test system: HOP-18
[57] = test system: HCT-15

## O=C1OC(Cc2ccccc2)(N2CCCC2=O)C1c1ccccc1 (centres undefined)
[1]
  GI50: > 100 µM (inactive)
[2]
  GI50: 59.4 µM (inactive)
[3]
  GI50: 55.3 µM (inactive)
[4]
  GI50: > 100 µM (inactive)
[5]
  GI50: > 100 µM (inactive)
[6]
  GI50: 75.2 µM (inactive)
[7]
  GI50: > 100 µM (inactive)
[8]
  GI50: 78.3 µM (inactive)
[9]
  GI50: 47.2 µM (inactive)
[10]
  GI50: 44.7 µM (inactive)
[11]
  GI50: > 100 µM (inactive)
[12]
  GI50: > 100 µM (inactive)
[13]
  GI50: > 100 µM (inactive)
[14]
  GI50: > 100 µM (inactive)
[15]
  GI50: > 100 µM (inactive)
[16]
  GI50: > 100 µM (inactive)
[17]
  GI50: > 100 µM (inactive)
[18]
  GI50: 23.7 µM (inactive)
[19]
  GI50: 4.95 µM (inactive)
[20]
  GI50: 67.5 µM (inactive)
[21]
  GI50: 74.8 µM (inactive)
[22]
  GI50: 56.4 µM (inactive)
[23]
  GI50: 60 µM (inactive)
[24]
  GI50: 63.8 µM (inactive)
[25]
  GI50: > 100 µM (inactive)
[26]
  GI50: 70.5 µM (inactive)
[27]
  GI50: > 100 µM (inactive)
[28]
  GI50: > 100 µM (inactive)
[29]
  GI50: > 100 µM (inactive)
[30]
  GI50: > 100 µM (inactive)
[31]
  GI50: 73.1 µM (inactive)
[32]
  GI50: 30.8 µM (inactive)
[33]
  GI50: > 100 µM (inactive)
[34]
  GI50: 48.2 µM (inactive)
[35]
  GI50: 95.7 µM (inactive)
[36]
  GI50: 20.3 µM (inactive)
[37]
  GI50: 43.6 µM (inactive)
[38]
  GI50: 51.5 µM (inactive)
[39]
  GI50: > 100 µM (inactive)
[40]
  GI50: > 100 µM (inactive)
[41]
  GI50: > 100 µM (inactive)
[42]
  GI50: 65.5 µM (inactive)
[43]
  GI50: 43.9 µM (inactive)
[44]
  GI50: > 100 µM (inactive)
[45]
  GI50: 53.2 µM (inactive)
[46]
  GI50: 62.8 µM (inactive)
[47]
  GI50: > 100 µM (inactive)
[48]
  GI50: 43 µM (inactive)
[49]
  GI50: > 100 µM (inactive)
[50]
  GI50: 48.6 µM (inactive)

## COc1ccc(/C=N/Nc2nc(C)c3c(n2)Nc2ccccc2NC3=O)cc1
[1]
  GI50: > 100 µM (inactive)
[2]
  GI50: > 100 µM (inactive)
[3]
  GI50: > 100 µM (inactive)
[5]
  GI50: > 100 µM (inactive)
[6]
  GI50: > 100 µM (inactive)
[7]
  GI50: > 100 µM (inactive)
[8]
  GI50: 76.7 µM (inactive)
[11]
  GI50: > 100 µM (inactive)
[12]
  GI50: > 100 µM (inactive)
[13]
  GI50: > 100 µM (inactive)
[14]
  GI50: > 100 µM (inactive)
[15]
  GI50: > 100 µM (inactive)
[16]
  GI50: > 100 µM (inactive)
[18]
  GI50: > 100 µM (inactive)
[19]
  GI50: > 100 µM (inactive)
[20]
  GI50: > 100 µM (inactive)
[22]
  GI50: > 100 µM (inactive)
[23]
  GI50: > 100 µM (inactive)
[24]
  GI50: > 100 µM (inactive)
[25]
  GI50: > 100 µM (inactive)
[51]
  GI50: > 100 µM (inactive)
[26]
  GI50: > 100 µM (inactive)
[29]
  GI50: > 100 µM (inactive)
[31]
  GI50: > 100 µM (inactive)
[32]
  GI50: 42.6 µM (inactive)
[52]
  GI50: > 100 µM (inactive)
[33]
  GI50: > 100 µM (inactive)
[34]
  GI50: > 100 µM (inactive)
[36]
  GI50: > 100 µM (inactive)
[53]
  GI50: > 100 µM (inactive)
[37]
  GI50: > 100 µM (inactive)
[39]
  GI50: > 100 µM (inactive)
[43]
  GI50: > 100 µM (inactive)
[45]
  GI50: > 100 µM (inactive)
[46]
  GI50: > 100 µM (inactive)
[48]
  GI50: > 100 µM (inactive)
[49]
  GI50: > 100 µM (inactive)
[54]
  GI50: > 100 µM (inactive)

## C1=C2/CC[C@H](Sc3ccccc3)[C@H]2C2(CCCCC/1)OCCO2
[1]
  GI50: 25.1 µM (inactive)
[2]
  GI50: 24.4 µM (inactive)
[55]
  GI50: 18.7 µM (inactive)
[3]
  GI50: 61.4 µM (inactive)
[4]
  GI50: 34.6 µM (inactive)
[5]
  GI50: 40.4 µM (inactive)
[6]
  GI50: 35.6 µM (inactive)
[56]
  GI50: 72.8 µM (inactive)
[7]
  GI50: 27.9 µM (inactive)
[8]
  GI50: 46.7 µM (inactive)
[9]
  GI50: 36.9 µM (inactive)
[10]
  GI50: 21.8 µM (inactive)
[11]
  GI50: 16.9 µM (inactive)
[12]
  GI50: 40.2 µM (inactive)
[13]
  GI50: > 100 µM (inactive)
[14]
  GI50: 19.5 µM (inactive)
[15]
  GI50: 27 µM (inactive)
[16]
  GI50: 94 µM (inactive)
[17]
  GI50: 21.1 µM (inactive)
[20]
  GI50: > 100 µM (inactive)
[21]
  GI50: 29.9 µM (inactive)
[22]
  GI50: 42.9 µM (inactive)
[23]
  GI50: 19.6 µM (inactive)
[24]
  GI50: 32.1 µM (inactive)
[51]
  GI50: 54.7 µM (inactive)
[26]
  GI50: 34.8 µM (inactive)
[27]
  GI50: > 100 µM (inactive)
[28]
  GI50: 26.7 µM (inactive)
[29]
  GI50: 20.2 µM (inactive)
[30]
  GI50: 29.5 µM (inactive)
[31]
  GI50: 31 µM (inactive)
[57]
  GI50: 28.2 µM
[32]
  GI50: 27.9 µM (inactive)
[52]
  GI50: 22.3 µM (inactive)
[33]
  GI50: 28.5 µM (inactive)
[34]
  GI50: 17.9 µM (inactive)
[35]
  GI50: 51.8 µM (inactive)
[53]
  GI50: 39.4 µM (inactive)
[38]
  GI50: 29.6 µM (inactive)
[39]
  GI50: 82.8 µM (inactive)
[40]
  GI50: 27.7 µM (inactive)
[41]
  GI50: 37.8 µM (inactive)
[42]
  GI50: 29 µM (inactive)
[43]
  GI50: 24.5 µM (inactive)
[44]
  GI50: 63.4 µM (inactive)
[45]
  GI50: 39.8 µM (inactive)
[46]
  GI50: 18.6 µM (inactive)
[47]
  GI50: 20.2 µM (inactive)
[48]
  GI50: 22.2 µM (inactive)
[54]
  GI50: 40.4 µM (inactive)
[50]
  GI50: 18.5 µM (inactive)
